Data on 1 molecule can be found in patent US20100003289A1, “Controlled Release Complex Formulation For Oral Administration of Medicine For Diabetes and Method For The Preparation Thereof” (Hanmi Pharm, Co., Ltd., priority 2004, published 2010).

A short description of the data set: Stability of glimepiride in solution as function of pH, Test Example 5. The data set is classed as physicochemical. On the set-up: Rate constant (K): unit not given beside the values. To be noted: for Log K / Rate constant (K) / T50% (time taken for 50% disintegration of the drug, 0.693/K): room temperature. The procedure: In order to examine the stability of glimepiride in a solution as function of pH changes, only the glimepiride rapid-release portion of the formulation of Example 13 was separated, and dissolved in each of the solutions listed in Table 17. Each of the resulting solutions was kept at room temperature and the glimepiride contents thereof were measured at predetermined times.

Where [1] appears, read: pH 1.2, 1st solution of disintegrating-test in Korea pharmacopoeia.
Setting [2] is: pH 4.0, British pharmacopoeia buffer solution (1998).
[3] abbreviates: pH 6.8, 2nd solution of disintegrating-test in Korea pharmacopoeia.
[4] abbreviates: pH 7.8, phosphate buffer solution (Amaryl release solution).

Consider `CCC1=C(C)CN(C(=O)NCCc2ccc(S(=O)(=O)NC(=O)N[C@H]3CC[C@H](C)CC3)cc2)C1=O` [glimepiride], for which the “Log K” value runs as follows: under setting [1], 0.186; under setting [2], −0.472; under setting [3], −0.900; under setting [4], −1.187; (pH 10.0, Meglumin 1% solution) −2.721. The “Rate constant (K)” value runs as follows: under setting [1], 1.534; under setting [2], 0.337; under setting [3], 0.126; under setting [4], 0.065; (pH 10.0, Meglumin 1% solution) 0.002. In addition, the “T50% (time taken for 50% disintegration of the drug, 0.693/K)” value under setting [1] came out at 0.45; the “T50% (time taken for 50% disintegration of the drug, 0.693/K)” value under setting [2] amounted to 2.06; the “T50% (time taken for 50% disintegration of the drug, 0.693/K)” value under setting [3] was found to be 5.50; the “T50% (time taken for 50% disintegration of the drug, 0.693/K)” value under setting [4] stood at 10.66; the “T50% (time taken for 50% disintegration of the drug, 0.693/K)” value (pH 10.0, Meglumin 1% solution) turned out to be 346.50. Under “solution containing meglumin, judged by lowest K value, FIG. 9”, the “stability of glimepiride as function of the solution pH” value was “most stable”.
